Assay results: PMC3422351, “Lipo-Endomorphin-1 Derivatives with Systemic Activity against Neuropathic Pain without Producing Constipation” (PLoS ONE, 2012)
Where two headings read alike, the source gives them in different places. Square brackets hold non-standard residues; d marks the D form. Peptide text beside a SMILES is read from it. ξ: configuration not given here. Dmt = Cc1cc(O)cc(C)c1C[C@H](N)C(=O)O; ξGly(octyl) = CCCCCCCCC(N)C(=O)O

Experiments:
[1] = target: T1, MOP receptor (Homo sapiens, UniProt P35372); assay: SH-SY5Y receptor binding assay ([3H]DAMGO displacement from whole cells); details: DPDPE 1 µM, read-out: K iμ
T1 construct: SH-SY5Y cells, which endogenously expresses MOP and δ-opioid (DOP) receptors; host or cells: SH-SY5Y human neuroblastoma cells
T1 sequence (P35372 whole entry): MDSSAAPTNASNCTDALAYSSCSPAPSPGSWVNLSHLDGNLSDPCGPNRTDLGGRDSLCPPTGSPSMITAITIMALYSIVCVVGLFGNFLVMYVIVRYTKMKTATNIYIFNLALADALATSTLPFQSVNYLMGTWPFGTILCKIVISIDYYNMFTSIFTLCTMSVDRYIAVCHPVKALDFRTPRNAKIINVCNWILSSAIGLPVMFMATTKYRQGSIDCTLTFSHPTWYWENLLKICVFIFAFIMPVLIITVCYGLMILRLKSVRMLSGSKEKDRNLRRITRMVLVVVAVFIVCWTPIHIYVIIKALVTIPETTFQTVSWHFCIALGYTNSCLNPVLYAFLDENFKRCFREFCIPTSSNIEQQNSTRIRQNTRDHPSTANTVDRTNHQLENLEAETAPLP
Experimental: A suspension of SH-SY5Ycells (10^5 cells per well) was seeded into 24-well plates and incubated overnight. The cells were washed with PBS and pre-incubated with 300 µL binding buffer (50 mM Tris buffer, pH 7.4, 2% BSA). A mixture of [^3H]-DAMGO (100 µL, 15 nM), DPDPE (100 µL, 1 µM) and 100 µL aliquots of each peptide in a range of concentrations (0.1 nM to 100 µM) was added to each well and the plate was incubated at 37°C. An excess of [^3H]-DAMGO (1 µM) was used to determine non-specific binding and buffer (100 µL) was measured as the blank. After 60 minutes, the cells were washed with PBS and 1 M NaOH (0.5 mL) was used to lyse the cells. The radioactivity of the cell suspension was measured by scintillation counting (Liquid Scintillation Systems, BECKMAN LS3801, USA). Data analysis was performed using the one-site competition binding model (GraphPad Prism™ (v5.0) software).

[2] = Caco-2 cell homogenate stability assay; assay type: in vitro ADME, human; details: for half-life: human, Caco-2, pH 7.4, Caco-2 cell homogenate, mean ± SEM, read-out: t 1/2 (min, Caco-2)
Experimental: A suspension of 5×10^4 Caco-2 cells in 100 µL culture medium was added to the wells of a 96-well cell culture plate. Culture medium supplemented with 1% penicillin/streptomycin (100 U/mL) was changed every second day.
After 21–28 days, the cells were washed with 0.2% EDTA (2×100 µL) and Hank's Balanced Salt Solution containing 25 mM 4-(2-hydroxyethyl)-1-piperazineethanesulfonic acid (HBSS-Hepes, pH 7.4; 3×100 µL). HBSS–Hepes buffer was added to each well (100 µL), and the cells were disrupted by two one-second pulses with a Sonics Vibracell ultrasonic processor set at 60% amplitude at 130 W. The cell debris was removed by centrifugation (2000 rpm, 5 minutes) and the protein content of three wells was determined using the Bio-Rad protein assay kit, by comparison with a standard curve generated from known concentrations of bovine serum albumin. The protein content of the cell homogenate was adjusted to 0.6–0.9 mg/mL in a clean 96-well plate.
The peptides were dissolved in HBSS–Hepes buffer containing 1% DMSO (dimethyl sulfoxide), and each peptide solution (200 µM, 100 µL) was added to three wells and the plate was incubated at 37°C in a shaker at 400 rpm. At pre-selected time points (5, 10, 15, 20, 30, 40, 50, 60, and 120 min), samples (10 µL) were collected and enzymatic digestion was stopped by addition of 5 µL TFA. These samples were then diluted with water (75.5 µl) and DMSO (9.5 µL) and analyzed by LC-MS to determine the concentration of peptide remaining in the solution.
LC-MS was carried out on a Luna Phenomenex C18 column (2.0×50 mm, 5 µm) with a gradient of 100% A (0.1% formic acid in water) to 100% B (0.1% formic acid in acetonitrile/water 9∶1) over 5.5 minutes at a flow rate of 0.3 mL/min. The mass spectrometer was set to selective ion monitoring in the positive ion electrospray mode. A standard curve was generated from standards containing known peptide concentrations, and used to determine the peptide concentration in the samples.

[3] = system: Caco-2 cell monolayers; assay: Caco-2 cell permeability assay; assay type: in vitro ADME, human; details: for increase in permeability (P app) compared to peptide 1: Caco-2 cell monolayers, vs 1 in the same experiment; for P app (×10^−7, cm/s): across Caco-2 cell monolayers, mean ± SEM
Experimental: (§1) A suspension of 10^5 Caco-2 cells (100 µL) in culture medium supplemented with 1% penicillin/streptomycin (100 U/mL) was pipetted into polycarbonate cell culture inserts (pore size 0.4 µm, 6.5 mm diameter, Transwell®) in a 24-well plate, and the same medium was also added to the basolateral chamber (0.6 mL). Medium in both chambers was changed every second day.
(§2) After 21–28 days, the integrity of the tight junctions and the monolayers was assessed by measuring the transepithelial electrical resistance (TEER) using the Millicell-ERS epithelial volt-ohmmeter system (Millipore Corporation). Wells that gave TEER values of 1500–4280 (Ωcm^2) were used for the experiment.
(§3) After the initial TEER test, the Caco-2 cell monolayers were washed with HBSS-Hepes buffer (3×) and then incubated with the same buffer at 37°C. After 30 minutes the buffer was removed from the apical chamber and 100 µL aliquots of peptides, dissolved to a concentration of 200 µM in HBSS-Hepes containing 1% DMSO, were added to at least three wells. As a further test of the Caco-2 cell monolayer integrity, radiolabelled [^14C]-D-mannitol (1.80 µCi) in HBSS-Hepes buffer was added to three wells. The plates were incubated in a shaker set to 400 rpm at 37°C, and samples (0.4 mL) were collected from the basolateral chamber at 30, 90, 120 and 150 minutes and replaced with the same volume of buffer. At the end of the experiment, 50 µL were collected from the apical chamber of each well. LC-MS quantification of the peptides was performed as described in Caco-2 cell homogenate stability assay. The radioactivity of the [^14C]-D-mannitol samples was quantified by liquid scintillation counting (Liquid Scintillation Systems, BECKMAN LS3801, USA), and the apparent permeability (P app) for each compound was calculated using the following equation: [drawing 1] dC/dt steady-state rate of change in the chemical concentration (M/s) or radiochemical concentration (dpm mL/s) in the receiver chamber
(§4) Vr volume of the receiver chamber (mL)
(§5) A surface area of the cell monolayers
(§6) C0 initial concentration in the donor chamber (M or dpm/mL)

[4] = Caco-2 cell permeability assay; assay type: in vitro ADME, human; details: human, Caco-2, pH 7.4, across Caco-2 cell monolayers, mean ± SEM
Experimental: as §1, §2, §3, §4, §5, §6

[5] = Plasma stability assay; assay type: in vitro ADME; details: human plasma, 37°C, mean ± SEM; read-out: t 1/2 (min, Plasma)
Experimental: Fresh human plasma was obtained from healthy and consenting volunteers (ethics approval number: 2006000950). The peptides were dissolved in PBS containing 5% DMSO (1 mg/mL), and 300 µL aliquots were mixed with 300 µL of pre-warmed plasma and incubated at 37°C. At selected time points (5, 10, 20, 30, 40, 60, 90, and 120 min), samples (50 µL) were collected and plasma proteins precipitated by addition of acetonitrile (75 µL). After centrifugation (10,000 rpm, 10 minutes), the peptide content of the supernatant was analyzed by HPLC with a Vydac C18 column (4.6×250 mm, 5 µm) at a flow rate of 1 mL/min and a gradient of 100% A (0.1% TFA in water) to 100% B (0.1% TFA in acetonitrile/water 9∶1) over 30 minutes.

[6] = target: T1, MOP receptor; assay: Inhibition of forskolin-stimulated cAMP formation in SH-SY5Y cells; assay type: cell-based
Experimental: SH-SY5Y cells, which express MOP and DOP receptors, were seeded (10^5 cells/mL, 100 µL) in a 96-well plate and incubated overnight to reach 80% confluence. Culture medium supplemented with 30 µM forskolin was used make peptide solution (100 nM) and aliquots (100 µL) of each peptide were added to three wells. After incubation at 37°C for 30 minutes, the culture medium was removed and lysis buffer from a cAMP Biotrak EIA kit (Amersham, Buckinghamshire, UK) was added, followed by an anti-cAMP antibody. After incubation at 4°C for 2 hours, a cAMP peroxidase conjugate was added and the plate incubated for another hour at 4°C. Then, the cell lysate was incubated with a 3,3′5,5′-tetramethylbenzidine (TMB) substrate provided by the Biotrak EIA kit and finally […] sulfuric acid was added. Absorbance of each well was determined using a plate reader at 450 nm and compared with a cAMP standard curve (concentration 0–3.2 pmol). Data was represented as a percentage of the maximum cAMP response to forskolin, shown as a mean (±SEM) of three separate experiments each performed in triplicate (GraphPad Prism™ (v5.0) software).

[7] = system: gastrointestinal transit of a charcoal meal in rats; assay: Charcoal test (gastrointestinal transit); assay type: in vivo, rat
Experimental: (§7) • Castor oil-induced diarrhea test in rats The ability of test items to inhibit castor-oil induced diarrhea as an index of constipation was assessed. Prior to the start of experimentation, drug-naive rats weighing 200–250 g were fasted for 16 h with free access to water. Individually caged rats were acclimatized for 1 h without access to food or water prior to drug or vehicle administration. […] Rats were gavaged with 1 mL of castor oil five minutes after test item or vehicle administration. Presence or absence of diarrhea was recorded every hour according to a scoring system based on the weight of feces boli and the feces consistency. Weight was scored from 0 (no feces) to 3 (>3 g of feces) and consistency was scored from 0 (normal-shape feces) to 3 (shapeless feces with large amounts of liquid). When both weight of feces and the feces consistency were scored at ≥2, diarrhea was considered to be present. • Charcoal test The charcoal test was assessed in groups of drug-naive rats to measure gastrointestinal (GI) transit. […] The total length of the small intestine from the pylorus to the ileocaecal junction as well as the most distal point of migration of the charcoal meal was measured. The percentage of the distance which the charcoal meal travelled relative to the total length of the small intestine (GI propulsion) was calculated.

[8] = system: castor oil-induced diarrhea in rats; assay: Castor oil-induced diarrhea test in rats; assay type: in vivo, rat
Experimental: as §7

[9] = system: CCI-rat model of neuropathic pain; assay: Antinociception in CCI-rat model of neuropathic pain (Von Frey paw withdrawal thresholds); assay type: in vivo; details: morphine i.v. at equi-effective dose, CCI-rats, p<0.001 vs vehicle
From the text: Chronic constriction injury (CCI) of the sciatic nerve in the rat was used as a model of neuropathic pain and was induced according to the method of Bennett and Xie [21]. Briefly, rats were anesthetized with 3% isoflurane delivered in oxygen. A 7 mm segment of the left common sciatic nerve was exposed at mid-thigh level, proximal to the sciatic trifurcation. […] The surgical incision was closed by suturing the muscles and skin in layers. To prevent infection, topical antibiotic powder was applied to the wound. The day of CCI surgery was regarded as day 0. Rats were inspected daily considering posture of the affected hindpaw, exploring behavior, body weight, water intake, and signs of autotomy until experimentation day, which was 14 days post-surgery.
Paw withdrawal thresholds (PWT's), expressed in grams, were measured using a set of calibrated Von Frey filaments (Touch Test- North Coast, 800-821-9319). Animals were acclimatized for at least 15 min in wire mesh metabolic cages (20×20×17 cm). Von Frey filaments which delivered forces in the range 2–20 g at 2 g intervals were used according to the up-down method [20]. Filaments were applied to the plantar surface of the footpad of the hindpaw so that the filament bent slightly for 3 seconds. […]

[10] = separate experiment [d] with 1 and 3 tested together

SMILES | Ki ([1]; mean ± SEM) [nM] | half-life ([2]; 37°C) [min] | increase in permeability (P app) compared to peptide 1 [3] [fold] | P app (×10^−7, cm/s) ([3]; LC/MS) | Papp A→B at 150 min, 200 µM ([4]; LC/MS) [×10⁻⁶ cm/s] | half-life [5] [min] | IC50 [6] [nM] | Papp A→B at 150 min, 200 µM [4, 10] [×10⁻⁶ cm/s] | also measured
CCCCCCCCC(N)C(=O)N[C@@H](Cc1c(C)cc(O)cc1C)C(=O)N1CCC[C@H]1C(=O)N[C@@H](Cc1c[nH]c2ccccc12)C(=O)N[C@@H](Cc1ccccc1)C(N)=O (stereo partly shown) [Compound 4] (H-[ξGly(octyl)][Dmt]PWF-NH2) | 0.5 | 96.3 ± 8.3 | 62 | 12.4 (±4.7) ×10^−7 cm/s | 1.24 ± 0.47 | 41.4 ± 3.3 | 1.3 ± 0.22 |  | increase in Caco-2 cell homogenate stability compared with parent peptide 1 ([2]; vs peptide 1 tested in the same experiment): 34 fold
CCCCCCCCC(N)C(=O)N[C@@H](Cc1ccc(O)cc1)C(=O)N1CCC[C@H]1C(=O)N[C@@H](Cc1c[nH]c2ccccc12)C(=O)N[C@@H](Cc1ccccc1)C(N)=O (stereo partly shown) [Compound 3] (H-[ξGly(octyl)]YPWF-NH2) |  |  | ~90 |  |  |  | 31.4 ± 1.45 | 9.01 ± 1.22 | Ki ([1]; separate experiment [d] with 1 and 3, mean ± SEM): 25.7 ± 1.3 nM; half-life [2, 10]: 77.4 ± 7.1 min; GI propulsion (%) ([7]; i.v. 16 µmol/kg, mean (± SEM)): 64.3 (±3.0) %; inhibition of castor oil-induced diarrhea ([8]; i.v. doses up to 16 µmol/kg, p>0.05): No significant inhibition; P app (×10^−7, cm/s) [3, 10]: 90.1 (±12.2) ×10^−7 cm/s
Cc1cc(O)cc(C)c1C[C@H](N)C(=O)N1CCC[C@H]1C(=O)N[C@@H](Cc1c[nH]c2ccccc12)C(=O)N[C@@H](Cc1ccccc1)C(N)=O [Compound 2] | 0.06 ± 0.01 | 24.1 ± 3.6 |  | 2.5 (±0.3) ×10^−7 cm/s | 0.25 ± 0.03 | 4.2 ± 1.5 | 0.3 ± 0.02 |  | 
NC(=O)[C@H](Cc1ccccc1)NC(=O)[C@H](Cc1c[nH]c2ccccc12)NC(=O)[C@@H]1CCCN1C(=O)[C@@H](N)Cc1ccc(O)cc1 [Compound 1, Tyr-Pro-Trp-Phe-NH2, reference compound] |  |  |  | 0.2 (±0.02) ×10^−7 cm/s | 0.02 ± 0.002 |  |  | 0.1 ± 0.034 | 
CN1CC[C@]23c4c5ccc(O)c4O[C@H]2[C@@H](O)C=C[C@H]3[C@H]1C5 [morphine, reference compound] |  |  |  |  |  |  |  |  | antinociception in the contralateral (uninjured) hindpaw [9]: produced significant antinociceptive activity; GI propulsion (%) ([7]; i.v. 2 µmol/kg, mean ± SEM, p<0.001): 29.5±4.6%; inhibition of castor oil-induced diarrhea ([8]; i.v. 2 µmol/kg, p<0.001): inhibited castor oil-induced diarrhea significantly
